Data on 48 molecules can be found in US9145373B2, “Certain kynurenine-3-monooxygenase inhibitors, pharmaceutical compositions, and methods of use thereof” (CHDI FOUNDATION, INC., priority 2008, dated 2015).

This test has as its target T1, KMO mouse enzyme (Mus musculus, UniProt Q91WN4).
T1 construct: KMO enzyme prepared at Evotec from mouse liver (4-6 weeks old) via mitochondria isolation; from tissue; host or cells: mouse liver (4-6 weeks old), mitochondria isolation, prepared at Evotec
In words: KMO mouse enzyme assay: L-Kynurenine hydroxylation to 3-Hydroxy-Kynurenine monitored by LC/MS (MRM). The settings on record: compound at 10 μM, KMO enzyme from mouse liver mitochondria; for inhibition at 10 µM: read-out: INH.Mouse @ 10 μM. Type of test: biochemical. The procedure:
A method of monitoring L-Kynurenine (KYN) hydroxylation to form 3-Hydroxy-Kynurenine (3OH-KYN) by LC/MS is described. Product is quantified by multiple reaction monitoring (MRM method).
• Compound: Stock concentrations: 10 mM in 100% DMSO • Enzyme: KMO enzyme prepared at Evotec from mouse liver (4-6 weeks old) via mitochondria isolation as described in the literature • Substrate: L-Kynurenine (Sigma: Cat# K3750, stock concentration: 10 mM in 100 mM potassium phosphate buffer, pH 7.4) Assay Conditions: […]

Structures can show the parent of a compound that is named as a salt.

T1 sequence (Q91WN4 whole entry): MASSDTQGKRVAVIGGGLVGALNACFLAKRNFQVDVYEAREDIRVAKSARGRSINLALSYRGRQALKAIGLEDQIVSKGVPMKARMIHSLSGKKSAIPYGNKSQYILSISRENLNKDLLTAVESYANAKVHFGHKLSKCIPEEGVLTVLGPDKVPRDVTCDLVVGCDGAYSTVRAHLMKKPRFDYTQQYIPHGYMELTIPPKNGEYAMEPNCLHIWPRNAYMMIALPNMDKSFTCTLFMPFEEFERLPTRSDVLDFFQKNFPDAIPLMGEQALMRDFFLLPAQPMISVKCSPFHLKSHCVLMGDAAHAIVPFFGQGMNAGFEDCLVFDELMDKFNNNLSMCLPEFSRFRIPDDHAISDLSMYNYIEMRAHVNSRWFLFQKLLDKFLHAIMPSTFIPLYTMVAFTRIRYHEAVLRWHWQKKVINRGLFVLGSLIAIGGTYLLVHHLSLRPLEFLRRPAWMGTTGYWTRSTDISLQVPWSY

With `O=C(NCc1ccncc1)c1cc(-c2cccc(Cl)c2)ncn1` [6-(3-Chloro-phenyl)-pyrimidine-4-carboxylic acid (pyridin-4-ylmethyl)-amide], the inhibition at 10 µM worked out at 100%.
Same read-out and setting: as for `O=C(Nc1nncs1)c1cc(-c2cccc(Cl)c2)ncn1` [6-(3-Chloro-phenyl)-pyrimidine-4-carboxylic acid [1,3,4]thiadiazol-2-ylamide], the figure is 97.4%; as for `NC(=O)c1cc(-c2cccc(Cl)c2)ncn1` [6-(3-Chloro-phenyl)-pyrimidine-4-carboxylic acid amide], 77.5%.
The same measure, in the same setting: in the case of `O=C(NCc1ccccc1)c1cc(-c2cccc(Cl)c2)ncn1` [6-(3-Chloro-phenyl)-pyrimidine-4-carboxylic acid benzylamide] it was 67%; in that of `CN(C)C(=O)c1cc(-c2cccc(Cl)c2)ncn1` [6-(3-Chloro-phenyl)-pyrimidine-4-carboxylic acid dimethylamide], 100%; in that of `CCNC(=O)c1cc(-c2cccc(Cl)c2)ncn1` [6-(3-Chloro-phenyl)-pyrimidine-4-carboxylic acid ethylamide], 100%.
Still for that read-out and setting: in the case of `CC(C)NC(=O)c1cc(-c2cccc(Cl)c2)ncn1` [6-(3-Chloro-phenyl)-pyrimidine-4-carboxylic acid isopropylamide] it was 100%; in that of `O=C(Nc1ccon1)c1cc(-c2cccc(Cl)c2)ncn1` [6-(3-Chloro-phenyl)-pyrimidine-4-carboxylic acid isoxazol-3-ylamide], 100%; in that of `Cc1cccc(NC(=O)c2cc(-c3cccc(Cl)c3)ncn2)c1` [6-(3-Chloro-phenyl)-pyrimidine-4-carboxylic acid m-tolylamide], 96.6%.
For `COC(=O)c1cc(-c2cccc(Cl)c2)ncn1` [6-(3-Chloro-phenyl)-pyrimidine-4-carboxylic acid methyl ester], the inhibition at 10 µM worked out at 106%.
Turning to `Cc1ccc(N(C)C(=O)c2cc(-c3cccc(Cl)c3)ncn2)cc1` [6-(3-Chloro-phenyl)-pyrimidine-4-carboxylic acid methyl-p-tolyl-amide], the inhibition at 10 µM was 100%.
Turning to `CN(C(=O)c1cc(-c2cccc(Cl)c2)ncn1)c1ccccc1` [6-(3-Chloro-phenyl)-pyrimidine-4-carboxylic acid methyl-phenyl-amide], the inhibition at 10 µM amounted to 100%.
Regarding `CN(C(=O)c1cc(-c2cccc(Cl)c2)ncn1)c1cccnc1` [6-(3-Chloro-phenyl)-pyrimidine-4-carboxylic acid methyl-pyridin-3-yl-amide], the inhibition at 10 µM was determined as 95.2%.
Regarding `CNC(=O)c1cc(-c2cccc(Cl)c2)ncn1` [6-(3-Chloro-phenyl)-pyrimidine-4-carboxylic acid methylamide], the inhibition at 10 µM was 100%.
Take `Cc1ccccc1NC(=O)c1cc(-c2cccc(Cl)c2)ncn1` [6-(3-Chloro-phenyl)-pyrimidine-4-carboxylic acid o-tolylamide]: the inhibition at 10 µM was determined as 96.2%.
Same read-out and setting: as for `O=C(Nc1ncco1)c1cc(-c2cccc(Cl)c2)ncn1` [6-(3-Chloro-phenyl)-pyrimidine-4-carboxylic acid oxazol-2-ylamide], the figure is 100%; as for `Cc1ccc(NC(=O)c2cc(-c3cccc(Cl)c3)ncn2)cc1` [6-(3-Chloro-phenyl)-pyrimidine-4-carboxylic acid p-tolylamide], 100%; as for `O=C(Nc1ccccc1)c1cc(-c2cccc(Cl)c2)ncn1` [6-(3-Chloro-phenyl)-pyrimidine-4-carboxylic acid phenylamide], 100%.
The same measure, in the same setting: in the case of `CCCNC(=O)c1cc(-c2cccc(Cl)c2)ncn1` [6-(3-Chloro-phenyl)-pyrimidine-4-carboxylic acid propylamide] it was 72.4%; in that of `O=C(Nc1cnccn1)c1cc(-c2cccc(Cl)c2)ncn1` [6-(3-Chloro-phenyl)-pyrimidine-4-carboxylic acid pyrazin-2-ylamide], 100%; in that of `O=C(Nc1cccnn1)c1cc(-c2cccc(Cl)c2)ncn1` [6-(3-Chloro-phenyl)-pyrimidine-4-carboxylic acid pyridazin-3-ylamide], 100%.
Still for that read-out and setting: in the case of `O=C(Nc1ccccn1)c1cc(-c2cccc(Cl)c2)ncn1` [6-(3-Chloro-phenyl)-pyrimidine-4-carboxylic acid pyridin-2-ylamide] it was 100%; in that of `O=C(Nc1cccnc1)c1cc(-c2cccc(Cl)c2)ncn1` [6-(3-Chloro-phenyl)-pyrimidine-4-carboxylic acid pyridin-3-ylamide], 98.6%.
In the case of `O=C(Nc1ccncc1)c1cc(-c2cccc(Cl)c2)ncn1` [6-(3-Chloro-phenyl)-pyrimidine-4-carboxylic acid pyridin-4-ylamide], the inhibition at 10 µM came out at 100%.
On the same count and under the same terms, as for `O=C(Nc1ncccn1)c1cc(-c2cccc(Cl)c2)ncn1` [6-(3-Chloro-phenyl)-pyrimidine-4-carboxylic acid pyrimidin-2-ylamide], the figure is 100%; as for `O=C(Nc1cncnc1)c1cc(-c2cccc(Cl)c2)ncn1` [6-(3-Chloro-phenyl)-pyrimidine-4-carboxylic acid pyrimidin-5-ylamide], 100%; as for `O=C(Nc1nccs1)c1cc(-c2cccc(Cl)c2)ncn1` [6-(3-Chloro-phenyl)-pyrimidine-4-carboxylic acid thiazol-2-ylamide], 100%.
On to `CN1CCN(c2ccc(NC(=O)c3cc(-c4cccc(Cl)c4)ncn3)cc2)CC1` [6-(3-Chloro-phenyl)-pyrimidine-4-carboxylicacid[4-(4-methyl-piperazin-1-yl)-phenyl]-amide], for which the “INH.Mouse @ 10 μM” value was found to be 87.7.
As to `O=C(O)c1cc(-c2cc(F)cc(C(F)(F)F)c2)ncn1` [6-(3-Fluoro-5-trifluoromethyl-phenyl)-pyrimidine-4-carboxylic acid], the inhibition at 10 µM is 75.8%.
Still for that read-out and setting: in the case of `COC(=O)c1cc(-c2cccc(F)c2)ncn1` [6-(3-Fluoro-phenyl)-pyrimidine-4-carboxylic acid methyl ester] it was 100%.
On the same count and under the same terms, as for `O=C(Nc1cccnc1)c1cc(-c2cccc(F)c2)ncn1` [6-(3-Fluoro-phenyl)-pyrimidine-4-carboxylic acid pyridin-3-ylamide], the figure is 94.8%.
On the same count and under the same terms, in the case of `COC(=O)c1cc(-c2cccc(OC)c2)ncn1` [6-(3-Methoxy-phenyl)-pyrimidine-4-carboxylic acid methyl ester] it was 77.5%.
Regarding `COc1cccc(-c2cc(C(=O)O)ncn2)c1` [6-(3-Methoxy-phenyl)-pyrimidine-4-carboxylic acid], the inhibition at 10 µM amounted to 81%.
The same measure, in the same setting: in the case of `COC(=O)c1cc(-c2cccc(C(F)(F)F)c2)ncn1` [6-(3-Trifluoromethyl-phenyl)-pyrimidine-4-carboxylic acid methyl ester] it was 94.5%; in that of `COC(=O)c1cc(-c2ccc(F)c(C(F)(F)F)c2)ncn1` [6-(4-Fluoro-3-trifluoromethyl-phenyl)-pyrimidine-4-carboxylic acid methyl ester], 92.7%.
Consider `COc1ccc(-c2cc(C(=O)O)ncn2)cc1` [6-(4-Methoxy-phenyl)-pyrimidine-4-carboxylic acid], for which the inhibition at 10 µM is 100%.
As for `COC(=O)c1cc(-c2cc(Cl)ccc2F)ncn1` [6-(5-Chloro-2-fluoro-phenyl)-pyrimidine-4-carboxylic acid methyl ester], the inhibition at 10 µM came to 100%.
Same read-out and setting: in the case of `O=C(O)c1cc(-c2cc(Cl)ccc2F)ncn1` [6-(5-Chloro-2-fluoro-phenyl)-pyrimidine-4-carboxylic acid] it was 100%.
With `COC(=O)c1cc(-c2cncc(Cl)c2)ncn1` [6-(5-Chloro-pyridin-3-yl)-pyrimidine-4-carboxylic acid methyl ester], the inhibition at 10 µM worked out at 93.2%.
On to `O=C(O)c1cc(-c2cncc(Cl)c2)ncn1` [6-(5-Chloro-pyridin-3-yl)-pyrimidine-4-carboxylic acid], for which the inhibition at 10 µM was found to be 91.7%.
Same read-out and setting: in the case of `COC(=O)c1cc(-c2cncc(F)c2)ncn1` [6-(5-Fluoro-pyridin-3-yl)-pyrimidine-4-carboxylic acid methyl ester] it was 87.2%.
Same read-out and setting: as for `O=C(O)c1cc(-c2cncc(F)c2)ncn1` [6-(5-Fluoro-pyridin-3-yl)-pyrimidine-4-carboxylic acid], the figure is 96.1%; as for `COC(=O)c1cc(-c2ccccc2)ncn1` [6-Phenyl-pyrimidine-4-carboxylic acid methyl ester], 100%; as for `COC(=O)c1cc(-c2cccnc2)ncn1` [6-Pyridin-3-yl-pyrimidine-4-carboxylic acid methyl ester trifluoroacetic acid salt], 74.5%.
On the same count and under the same terms, as for `COC(=O)c1cc(-c2cccc(C)c2)ncn1` [6-m-Tolyl-pyrimidine-4-carboxylic acid methyl ester], the figure is 96.3%; as for `O=C(c1cc(-c2ccc(Cl)c(Cl)c2)ncn1)N1CCc2cc(Cl)ccc21` [(5-Chloro-2,3-dihydro-indol-1-yl)-[6-(3,4-dichloro-phenyl)-pyrimidin-4-yl]-methanone], 100%.
`O=C(c1cc(-c2cccc(Cl)c2)ncn1)N1CCc2cc(Cl)ccc21` [(5-Chloro-2,3-dihydro-indol-1-yl)-[6-(3-chloro-phenyl)-pyrimidin-4-yl]-methanone]: the inhibition at 10 µM is 100%.
On the same count and under the same terms, as for `NC(=O)[C@H]1CCCN1C(=O)c1cc(-c2cccc(Cl)c2)ncn1` [(R)-1-[6-(3-Chloro-phenyl)-pyrimidine-4-carbonyl]-pyrrolidine-2-carboxylic acid amide], the figure is 95.4%.
